We go through three molecules from patent publication US10881634B2, “Method for treatment or prevention of a disease associated with a decrease in bone mass and method of improving bone architecture and bio mechanical strength of bone” (HUGHES BIOTECHNOLOGY CO., LTD, priority 2017, dated 2021).

Test [1] relates to ovariectomized rats. Nature of the test: Bone mechanics analysis (three-point bending test of femur). It is filed as in vivo, Wistar rats. The note with it: week 12. The procedure:
(§1) For ovariectomy rats, bilateral ovariectomy surgery was conducted at 12-week-old under anesthesia with Zoletil 50 (Tiletamine 20-40 mg/kg+Zolazepam 5-10 mg/kg) and Rompun, following the FDA Guidelines and Animal Models for Osteoporosis. For sham surgery rats, set as control group, the surgery performed surgical incision without removing the ovaries was also conducted at 12-week-old under anesthesia with Zoletil 50 (Tiletamine 20-40 mg/kg+Zolazepam 5-10 mg/kg) and Rompun. After ovariectomy surgery, 24 rats of ovariectomy group were randomly divided into 4 groups, namely, 6 rats in each group. After 2 weeks of surgery, the rats were oral administered once a day with different samples based on their groups. The rats were weighed once a week as the basis for the dose of administration for 12 weeks and the weight data were recorded. Finally, when sacrificed, the ovarian of the rats were checked to determine whether the ovariectomy surgery was successful or not, wherein the data of failed ovariectomy rat(s) would be eliminated.
(§2) Total 30 rats were grouped into following 5 groups (i.e., “SHAM”, “OVX”, “G7P”, “G7P2X”, “E2”). • a. SHAM group: sham surgery rats, set as control group, fed with sterile water by oral gavage; • b. OVX group: ovariectomized rats, set as negative control, fed with sterile water by oral gavage; • c. G7P group: ovariectomized rats, administered with 5.33 mg/kg B.W. G7P solution once per day by oral gavage, wherein the dosage was equal to 40 mg/day of the amount of soy isoflavones for adult; • d. G7P2X group: ovariectomized rats, administered with 10.66 mg/kg B.W. G7P once per day by oral gavage, wherein the dosage was equal to 80 mg/day of the amount of soy isoflavones for adult; • e. E2 group: ovariectomized rats, set as positive control, administered with 200 μg/kg B.W. […] once per day by tube feeding.
The bio-mechanical strength of femur was measured using bio-mechanical testing instrument (RT1-TST, Royalty Tec.Ins. Ltd) after removing the soft tissue of left leg. First, the length of the femur was measured by the electronic vernier and the mid-position of the femur was set so as to be the scale standard which must be aligned when compressing the vertical physical strength of the femur by the bone stress meter. The femur was kept moist with physiological saline and fixed on a test bench for a three-point bending test. The motor revolution speed of the bone stress meter was set at 0.05 mm/sec. After the femur was compressed to fracture, the parameters of the bone mechanics analysis obtained by the test system were as follows:
a. maximal load: the force converted from the maximum weight of the record, the unit is Newton;
b. maximal energy: the area integratal under the record curve, the unit is mJ;
d. Young's modulus or elastic modulus (E).

The subject of test [2] is ovariectomized rats. Nature of the test: Bone index test (in vivo micro-CT scan of caput femoris). Further details: species or system Wistar rats. The conditions noted are these: for BMD level compared with OVX group: week 12. The procedure:
as §1, §2
At week 0, 3, 6, 9 and 12 of the experimental period, in vivo micro-CT scan were conducted on the caput femoris of right leg of the rats by animal CT scanner system Sky Scan 1176 to obtain the 3D tomography image. The obtained 3D tomography images were further analyzed by software so as to obtain bone index data. The data include bone mineral density (BMD) and bone volume-to-total volume ratio (bone volume/total volume, BV/TV, %).

Test [3] in a line: Weight changes in ovariectomized rat model. It is filed as in vivo, Wistar rats. The note with it: ovariectomized rats; for effect on weight gain caused by estrogen deficiency: 12 weeks. The protocol: 12-week-old female Wistar rats were used. All of experimental rats were purchased from BioLASCO Taiwan Co., Ltd. The rats were housed in the Experimental Animal Center of Taipei Medical University. The animal room was maintained under temperature of 21-24° C., relative humidity of 30-70%, and 12 hours of automatic light for alternating dark and bright. During the experimental periods, the animals were given adequate drinking water and fed with standard feed. The feeding and surgery were in accordance with the regulations of the Institutional Animal Care and Use Committee (IACUC) of Taipei Medical University.
as §1, §2

The subject of test [4] is ovariectomized rats. As to the kind of experiment: Histopathological observation (H&E staining, caput femoris). The class given is in vivo, Wistar rats. The procedure: as §1
Total 30 rats were grouped into following 5 groups (i.e., “SHAM”, “OVX”, “G7P”, “G7P2X”, “E2”). • a. SHAM group: sham surgery rats, set as control group, fed with sterile water by oral gavage; • b. OVX group: ovariectomized rats, set as negative control, fed with sterile water by oral gavage; • c. […]

Test [5] has as its system ovarietomized rats. The conditions noted are these: 3.2 mg/kg B.W. daily oral supplement, 5 months; cited from earlier work.
Setting [6] is: estradiol 200 μg/kg B.W. once per day by tube feeding (E2 group).
[7] abbreviates: estradiol 200 μg/kg B.W. once per day oral (E2 group).
The mark [8] stands for this setting: G7P 5.33 mg/kg B.W. once per day oral (G7P group).
Setting [9] is: G7P 10.66 mg/kg B.W. once per day oral (G7P2X group).
Setting [10] is: G7P 5.33 mg/kg B.W. once per day oral gavage (G7P group).
Where [11] appears, read: G7P 10.66 mg/kg B.W. once per day oral gavage (G7P2X group).

The structures appear in SMILES notation.

Consider `C[C@]12CC[C@@H]3c4ccc(O)cc4CC[C@H]3[C@@H]1CC[C@@H]2O` [E2, 1743 estradiol, reference compound], for which, in test [1] (setting [6]), the “Max Energy” value is given as 76.1 ± 20.3 mJ, the Stiffness was 307.6 ± 55.1 N/mm and the applied load was found to be 176.8 ± 12.1 N. For the same molecule, in test [2] (setting [7]), the “BV/TV compared with OVX group” value was “higher than that of the OVX group with statistical significance”, the “trabecular structure in μCT 3D imaging” value is given as “a wide but loose trabecular distribution” and the “BMD level compared with OVX group” value is “significantly higher than that of the OVX group”. For the same molecule, the “effect on weight gain caused by estrogen deficiency” value (“effect on weight gain caused” for short) in test [3] (setting [7]) is listed as “could reduce the weight gain”.

Regarding `O=c1c(-c2ccc(O)cc2)coc2cc(OP(=O)(O)O)cc(O)c12` [G7P, genistein 7-O-phophate], in test [4] (setting [8]), the “bone mineral retention and trabecular bone density in H&E slide” value is on record as “good”. Besides, the “bone mineral retention and trabecular bone density in H&E slide” value in test [4] (setting [9]) is given as “good”. Besides, in test [1] (setting [10]), the Elastic modulus is given as 21.8 ± 2.6 MPa, the “Max Energy” value was found to be 74.4 ± 6.8 mJ, the Stiffness was found to be 326.2 ± 43.2 N/mm and the applied load was 186.5 ± 5.9 N. In test [1] (setting [11]), the Elastic modulus came out at 22.8 ± 6.1 MPa, the “Max Energy” value is 82.7 ± 22.8 mJ, the Stiffness was 319.1 ± 6.1 N/mm and the applied load came out at 197.5 ± 20.6 N. In test [2] (setting [8]), the “BV/TV compared with OVX group” value was “higher than that of the OVX group with statistical significance”, the “trabecular structure in μCT 3D imaging” value is recorded as “much integrated than that of the OVX group” and the “BMD level compared with OVX group” value is given as “significantly higher than that of the OVX group”. In test [2] (setting [9]), the “BV/TV compared with OVX group” value is recorded as “higher than that of the OVX group with statistical significance”, the “trabecular structure in μCT 3D imaging” value was “much integrated than that of the OVX group” and the “BMD level compared with OVX group” value is recorded as “significantly higher than that of the OVX group”. Besides, the “effect on weight gain caused” value in test [3] (setting [8]) is “did not reverse the weight gain”. This molecule displayed a body weight in test [3] (G7P 5.33 mg/kg B.W. once per day oral (G7P group), week 12 after surgery) of approximately 400 g. Further, the “effect on weight gain caused” value in test [3] (setting [9]) was “did not reverse the weight gain”.

On to `O=c1c(-c2ccc(O)cc2)coc2cc(O)cc(O)c12` [genistein], for which, in test [5], the “effect on bone mass, density or architecture” value is given as “had no effect on bone mass, density or architecture”.
